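Values below derive from 48-hour exposures of cells grown in 96-well plates, with endpoints linearly interpolated between the two concentrations bracketing the appropriate inhibition level. TGI denotes the concentration required for complete inhibition of growth.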
Experiments:
Assay in all cases: DTP human tumour cell line panel, 48 h
HCT-15 colon = test system: HCT-15 colon
KM12 colon = test system: KM12 colon
SNB-75 CNS = test system: SNB-75 CNS
SF-268 CNS = test system: SF-268 CNS
OVCAR-5 ovarian = test system: OVCAR-5 ovarian
CAKI-1 renal = test system: CAKI-1 renal
IGROV1 ovarian = test system: IGROV1 ovarian
HCT-116 colon = test system: HCT-116 colon
BT-549 breast = test system: BT-549 breast
MDA-MB-231 breast = test system: MDA-MB-231 breast
SR leukemia = test system: SR leukemia
A549 NSCLC = test system: A549 NSCLC
A498 renal = test system: A498 renal
HOP-92 NSCLC = test system: HOP-92 NSCLC
EKVX NSCLC = test system: EKVX NSCLC
MDA-MB-435 = test system: MDA-MB-435
NCI-H23 lung = test system: NCI-H23 lung
HCC-2998 colon = test system: HCC-2998 colon
M14 melanoma = test system: M14 melanoma
HS 578T breast = test system: HS 578T breast
DU-145 prostate = test system: DU-145 prostate
LOX IMVI melanoma = test system: LOX IMVI melanoma
ACHN renal = test system: ACHN renal
COLO 205 colon = test system: COLO 205 colon
OVCAR-4 ovarian = test system: OVCAR-4 ovarian
NCI-H522 lung = test system: NCI-H522 lung
SF-539 CNS = test system: SF-539 CNS
MDA-N = test system: MDA-N
786-0 renal = test system: 786-0 renal
SK-MEL-2 melanoma = test system: SK-MEL-2 melanoma
OVCAR-3 ovarian = test system: OVCAR-3 ovarian
HL-60(TB) leukemia = test system: HL-60(TB) leukemia
SW-620 colon = test system: SW-620 colon
SK-OV-3 ovarian = test system: SK-OV-3 ovarian
U251 CNS = test system: U251 CNS
K-562 leukemia = test system: K-562 leukemia
OVCAR-8 ovarian = test system: OVCAR-8 ovarian
MALME-3M melanoma = test system: MALME-3M melanoma
PC-3 prostate = test system: PC-3 prostate
SK-MEL-28 melanoma = test system: SK-MEL-28 melanoma
HT29 colon = test system: HT29 colon
MOLT-4 leukemia = test system: MOLT-4 leukemia
NCI-H226 lung = test system: NCI-H226 lung
CCRF-CEM leukemia = test system: CCRF-CEM leukemia
UO-31 renal = test system: UO-31 renal
NCI/ADR-RES ovarian = test system: NCI/ADR-RES ovarian
RXF 393 renal = test system: RXF 393 renal
MCF7 breast = test system: MCF7 breast
RPMI-8226 leukemia = test system: RPMI-8226 leukemia
SN12C renal = test system: SN12C renal
UACC-62 melanoma = test system: UACC-62 melanoma
SNB-19 CNS = test system: SNB-19 CNS
HOP-62 NSCLC = test system: HOP-62 NSCLC
NCI-H460 lung = test system: NCI-H460 lung
SF-295 CNS = test system: SF-295 CNS
UACC-257 melanoma = test system: UACC-257 melanoma
T-47D breast = test system: T-47D breast
TK-10 renal = test system: TK-10 renal
SK-MEL-5 melanoma = test system: SK-MEL-5 melanoma

## N=C(N)CCNC(=O)C1CCC(N)=N1 (configuration not stated)
HCT-15 colon
  TGI: > 100 µM
KM12 colon
  TGI: > 100 µM
SNB-75 CNS
  TGI: 60.4 µM
SF-268 CNS
  TGI: > 93 µM
OVCAR-5 ovarian
  TGI: > 96.6 µM
CAKI-1 renal
  TGI: > 100 µM
IGROV1 ovarian
  TGI: > 100 µM
HCT-116 colon
  TGI: > 91 µM
BT-549 breast
  TGI: > 100 µM
MDA-MB-231 breast
  TGI: > 79.3 µM
SR leukemia
  TGI: > 100 µM
A549 NSCLC
  TGI: > 61.2 µM
A498 renal
  TGI: 85.9 µM
HOP-92 NSCLC
  TGI: > 67.8 µM
EKVX NSCLC
  TGI: > 89.7 µM
MDA-MB-435
  TGI: > 100 µM
NCI-H23 lung
  TGI: > 93.3 µM
HCC-2998 colon
  TGI: > 36.2 µM
M14 melanoma
  TGI: 98.1 µM
HS 578T breast
  TGI: 65.5 µM
DU-145 prostate
  TGI: > 65.6 µM
LOX IMVI melanoma
  TGI: > 100 µM
ACHN renal
  TGI: > 100 µM
COLO 205 colon
  TGI: > 59 µM
OVCAR-4 ovarian
  TGI: 81.3 µM
NCI-H522 lung
  TGI: > 92.9 µM
SF-539 CNS
  TGI: > 43.2 µM
MDA-N
  TGI: > 100 µM
786-0 renal
  TGI: > 95.7 µM
SK-MEL-2 melanoma
  TGI: > 78.7 µM
OVCAR-3 ovarian
  TGI: > 41.9 µM
HL-60(TB) leukemia
  TGI: > 87.4 µM
SW-620 colon
  TGI: > 100 µM
SK-OV-3 ovarian
  TGI: > 69.3 µM
U251 CNS
  TGI: > 100 µM
K-562 leukemia
  TGI: > 100 µM
OVCAR-8 ovarian
  TGI: > 100 µM
MALME-3M melanoma
  TGI: > 61.6 µM
PC-3 prostate
  TGI: > 64.6 µM
SK-MEL-28 melanoma
  TGI: > 100 µM
HT29 colon
  TGI: > 84.5 µM
MOLT-4 leukemia
  TGI: > 78.8 µM
NCI-H226 lung
  TGI: > 63.8 µM
CCRF-CEM leukemia
  TGI: > 80.5 µM
UO-31 renal
  TGI: > 80.1 µM
NCI/ADR-RES ovarian
  TGI: > 100 µM
RXF 393 renal
  TGI: > 94.4 µM
MCF7 breast
  TGI: > 100 µM
RPMI-8226 leukemia
  TGI: > 100 µM
SN12C renal
  TGI: 68.3 µM
UACC-62 melanoma
  TGI: > 100 µM
SNB-19 CNS
  TGI: > 100 µM
HOP-62 NSCLC
  TGI: > 48.2 µM
NCI-H460 lung
  TGI: > 82.1 µM
SF-295 CNS
  TGI: > 86.2 µM
UACC-257 melanoma
  TGI: > 81.1 µM
T-47D breast
  TGI: > 59.7 µM
TK-10 renal
  TGI: > 90.4 µM
SK-MEL-5 melanoma
  TGI: > 61.9 µM

## COc1ccc(CNC(=O)[C@H](Cc2ccc(O)cn2)NC(C)=O)cc1OC
HCT-15 colon
  TGI: > 100 µM
KM12 colon
  TGI: > 100 µM
SNB-75 CNS
  TGI: > 100 µM
SF-268 CNS
  TGI: > 100 µM
OVCAR-5 ovarian
  TGI: > 100 µM
CAKI-1 renal
  TGI: > 100 µM
IGROV1 ovarian
  TGI: > 100 µM
HCT-116 colon
  TGI: > 100 µM
BT-549 breast
  TGI: > 100 µM
MDA-MB-231 breast
  TGI: > 100 µM
SR leukemia
  TGI: > 100 µM
A549 NSCLC
  TGI: > 100 µM
A498 renal
  TGI: > 100 µM
HOP-92 NSCLC
  TGI: > 100 µM
EKVX NSCLC
  TGI: > 100 µM
MDA-MB-435
  TGI: > 100 µM
NCI-H23 lung
  TGI: > 100 µM
HCC-2998 colon
  TGI: > 100 µM
M14 melanoma
  TGI: > 100 µM
HS 578T breast
  TGI: > 100 µM
DU-145 prostate
  TGI: > 100 µM
LOX IMVI melanoma
  TGI: > 100 µM
ACHN renal
  TGI: > 100 µM
COLO 205 colon
  TGI: > 100 µM
OVCAR-4 ovarian
  TGI: > 100 µM
NCI-H522 lung
  TGI: > 100 µM
SF-539 CNS
  TGI: > 100 µM
MDA-N
  TGI: > 100 µM
786-0 renal
  TGI: > 100 µM
SK-MEL-2 melanoma
  TGI: > 100 µM
OVCAR-3 ovarian
  TGI: > 100 µM
HL-60(TB) leukemia
  TGI: > 100 µM
SW-620 colon
  TGI: > 100 µM
SK-OV-3 ovarian
  TGI: > 100 µM
U251 CNS
  TGI: > 100 µM
K-562 leukemia
  TGI: > 100 µM
OVCAR-8 ovarian
  TGI: > 100 µM
MALME-3M melanoma
  TGI: > 100 µM
PC-3 prostate
  TGI: > 100 µM
SK-MEL-28 melanoma
  TGI: > 100 µM
HT29 colon
  TGI: > 100 µM
MOLT-4 leukemia
  TGI: > 100 µM
NCI-H226 lung
  TGI: > 100 µM
CCRF-CEM leukemia
  TGI: > 100 µM
UO-31 renal
  TGI: > 100 µM
NCI/ADR-RES ovarian
  TGI: > 100 µM
RXF 393 renal
  TGI: > 100 µM
MCF7 breast
  TGI: > 100 µM
RPMI-8226 leukemia
  TGI: > 100 µM
SN12C renal
  TGI: > 100 µM
UACC-62 melanoma
  TGI: > 100 µM
SNB-19 CNS
  TGI: > 100 µM
HOP-62 NSCLC
  TGI: > 100 µM
NCI-H460 lung
  TGI: > 100 µM
SF-295 CNS
  TGI: > 100 µM
UACC-257 melanoma
  TGI: > 100 µM
T-47D breast
  TGI: > 100 µM
TK-10 renal
  TGI: > 100 µM
SK-MEL-5 melanoma
  TGI: > 100 µM

## Cc1ccc(-c2cc(-c3cc(-c4ccc(C)cc4C)n[nH]3)[nH]n2)c(C)c1
HCT-15 colon
  TGI: 44.8 µM
KM12 colon
  TGI: 49 µM
SNB-75 CNS
  TGI: 34.8 µM
SF-268 CNS
  TGI: 27.5 µM
OVCAR-5 ovarian
  TGI: 59 µM
CAKI-1 renal
  TGI: 36.2 µM
IGROV1 ovarian
  TGI: 28.6 µM
HCT-116 colon
  TGI: 33 µM
BT-549 breast
  TGI: 42.7 µM
MDA-MB-231 breast
  TGI: 32.8 µM
SR leukemia
  TGI: 26.5 µM
A549 NSCLC
  TGI: > 52.4 µM
A498 renal
  TGI: 34.1 µM
HOP-92 NSCLC
  TGI: 39 µM
EKVX NSCLC
  TGI: 46 µM
MDA-MB-435
  TGI: 31.1 µM
NCI-H23 lung
  TGI: 41.9 µM
HCC-2998 colon
  TGI: 28.9 µM
M14 melanoma
  TGI: 40.3 µM
HS 578T breast
  TGI: 44.6 µM
DU-145 prostate
  TGI: 33.1 µM
LOX IMVI melanoma
  TGI: 38.4 µM
ACHN renal
  TGI: 24.4 µM
COLO 205 colon
  TGI: > 62 µM
OVCAR-4 ovarian
  TGI: 29.1 µM
NCI-H522 lung
  TGI: 30.3 µM
SF-539 CNS
  TGI: 34 µM
MDA-N
  TGI: 34.1 µM
786-0 renal
  TGI: 26.2 µM
SK-MEL-2 melanoma
  TGI: 36.2 µM
OVCAR-3 ovarian
  TGI: 26.9 µM
HL-60(TB) leukemia
  TGI: 0.0792 µM
SW-620 colon
  TGI: 33.1 µM
SK-OV-3 ovarian
  TGI: 29.4 µM
U251 CNS
  TGI: 27.6 µM
K-562 leukemia
  TGI: 37.4 µM
OVCAR-8 ovarian
  TGI: 43.1 µM
MALME-3M melanoma
  TGI: 25 µM
PC-3 prostate
  TGI: 29.2 µM
SK-MEL-28 melanoma
  TGI: 32.4 µM
HT29 colon
  TGI: 35.1 µM
MOLT-4 leukemia
  TGI: 36.8 µM
NCI-H226 lung
  TGI: 42.9 µM
CCRF-CEM leukemia
  TGI: 8.45 µM
UO-31 renal
  TGI: 45.7 µM
NCI/ADR-RES ovarian
  TGI: 43 µM
RXF 393 renal
  TGI: 32.7 µM
MCF7 breast
  TGI: 38.8 µM
RPMI-8226 leukemia
  TGI: 10.5 µM
SN12C renal
  TGI: 30.7 µM
UACC-62 melanoma
  TGI: > 62 µM
SNB-19 CNS
  TGI: 41.2 µM
HOP-62 NSCLC
  TGI: 30.2 µM
NCI-H460 lung
  TGI: 21.4 µM
SF-295 CNS
  TGI: 26.5 µM
UACC-257 melanoma
  TGI: 26.7 µM
T-47D breast
  TGI: > 74.4 µM
TK-10 renal
  TGI: 29.4 µM
SK-MEL-5 melanoma
  TGI: 56.2 µM

From PubChem BioAssay (NCI)
